{
  "source": "paper PMC10838953",
  "key": {"CSNK1G1": {"target": "CSNK1G1 (Homo sapiens, UniProt Q9HCP0)", "experiment": "biochemical", "conditions": "read-out: %Ctrl @ 2000nM"}, "CAMK1": {"target": "CAMK1 (Homo sapiens, UniProt Q14012)", "experiment": "biochemical", "conditions": "read-out: %Ctrl @ 2000nM"}, "EPHB3": {"target": "EPHB3 (Homo sapiens, UniProt P54753)", "experiment": "biochemical", "conditions": "read-out: %Ctrl @ 2000nM"}, "MST1R": {"target": "MST1R (Homo sapiens, UniProt Q04912)", "experiment": "biochemical", "conditions": "read-out: %Ctrl @ 2000nM"}, "CLK1": {"target": "CLK1 (Homo sapiens, UniProt P49759)", "experiment": "biochemical", "conditions": "read-out: %Ctrl @ 2000nM"}, "MEK1": {"target": "MEK1 (Homo sapiens, UniProt Q02750)", "sequence (Q02750 whole entry)": "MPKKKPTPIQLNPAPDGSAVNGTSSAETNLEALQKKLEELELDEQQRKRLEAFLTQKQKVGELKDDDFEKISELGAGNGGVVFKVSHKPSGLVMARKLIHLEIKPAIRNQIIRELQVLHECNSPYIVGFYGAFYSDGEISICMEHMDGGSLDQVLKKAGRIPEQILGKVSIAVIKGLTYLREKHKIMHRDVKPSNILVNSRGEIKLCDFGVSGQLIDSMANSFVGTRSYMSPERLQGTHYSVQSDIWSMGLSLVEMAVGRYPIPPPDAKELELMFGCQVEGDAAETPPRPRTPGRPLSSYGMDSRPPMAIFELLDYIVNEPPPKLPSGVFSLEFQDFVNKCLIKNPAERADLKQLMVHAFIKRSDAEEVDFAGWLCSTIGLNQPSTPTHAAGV", "experiment": "biochemical", "conditions": "read-out: %Ctrl @ 2000nM"}, "CAMK2D": {"target": "CAMK2D (Homo sapiens, UniProt Q13557)", "experiment": "biochemical", "conditions": "read-out: %Ctrl @ 2000nM"}, "TRKA": {"target": "TRKA (Homo sapiens, UniProt P04629)", "sequence (P04629 33-796)": "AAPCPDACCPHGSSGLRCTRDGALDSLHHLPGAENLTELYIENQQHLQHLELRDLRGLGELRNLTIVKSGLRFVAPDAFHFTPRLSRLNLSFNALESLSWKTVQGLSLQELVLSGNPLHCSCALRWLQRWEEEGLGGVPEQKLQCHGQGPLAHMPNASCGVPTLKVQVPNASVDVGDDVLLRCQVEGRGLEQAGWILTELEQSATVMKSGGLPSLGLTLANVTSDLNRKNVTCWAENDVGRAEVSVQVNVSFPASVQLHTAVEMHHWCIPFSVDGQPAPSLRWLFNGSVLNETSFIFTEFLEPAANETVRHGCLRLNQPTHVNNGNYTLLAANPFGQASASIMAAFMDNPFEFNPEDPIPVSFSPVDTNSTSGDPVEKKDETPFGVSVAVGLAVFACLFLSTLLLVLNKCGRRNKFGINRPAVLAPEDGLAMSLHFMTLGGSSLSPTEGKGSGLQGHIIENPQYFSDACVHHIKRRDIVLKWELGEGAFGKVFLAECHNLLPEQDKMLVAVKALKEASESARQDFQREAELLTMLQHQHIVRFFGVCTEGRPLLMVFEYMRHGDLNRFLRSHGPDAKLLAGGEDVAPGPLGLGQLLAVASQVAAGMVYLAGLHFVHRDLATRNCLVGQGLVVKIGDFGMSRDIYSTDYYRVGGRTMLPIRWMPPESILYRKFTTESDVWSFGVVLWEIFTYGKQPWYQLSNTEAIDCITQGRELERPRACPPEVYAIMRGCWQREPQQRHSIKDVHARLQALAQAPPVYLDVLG", "experiment": "biochemical", "conditions": "read-out: %Ctrl @ 2000nM"}, "CAMK2A": {"target": "CAMK2A (Homo sapiens, UniProt Q9UQM7)", "sequence (Q9UQM7 whole entry)": "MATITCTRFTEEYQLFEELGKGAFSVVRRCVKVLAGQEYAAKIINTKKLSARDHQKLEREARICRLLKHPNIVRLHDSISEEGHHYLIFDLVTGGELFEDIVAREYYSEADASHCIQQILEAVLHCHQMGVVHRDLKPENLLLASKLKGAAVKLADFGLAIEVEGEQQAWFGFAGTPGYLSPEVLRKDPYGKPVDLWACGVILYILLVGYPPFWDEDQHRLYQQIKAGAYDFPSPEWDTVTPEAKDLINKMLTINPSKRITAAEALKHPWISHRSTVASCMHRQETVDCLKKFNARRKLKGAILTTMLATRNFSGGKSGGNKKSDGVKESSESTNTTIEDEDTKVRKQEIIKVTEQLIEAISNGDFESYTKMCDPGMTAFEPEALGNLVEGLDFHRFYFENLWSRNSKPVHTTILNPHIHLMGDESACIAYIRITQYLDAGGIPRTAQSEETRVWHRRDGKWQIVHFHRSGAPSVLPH", "experiment": "biochemical", "conditions": "read-out: %Ctrl @ 2000nM"}, "DDR2": {"target": "DDR2 (Homo sapiens, UniProt Q16832)", "experiment": "biochemical", "conditions": "read-out: %Ctrl @ 2000nM"}, "SLK": {"target": "SLK (Homo sapiens, UniProt Q9H2G2)", "experiment": "biochemical", "conditions": "read-out: %Ctrl @ 2000nM"}, "S6K1": {"target": "S6K1 (Homo sapiens, UniProt P23443)", "experiment": "biochemical", "conditions": "read-out: %Ctrl @ 2000nM"}, "FLT3(D835H)": {"target": "FLT3(D835H) (Homo sapiens, UniProt P36888, D835H)", "experiment": "biochemical", "conditions": "read-out: %Ctrl @ 2000nM"}, "EGFR(L858R)": {"target": "EGFR(L858R) (Homo sapiens, UniProt P00533, L858R)", "sequence (P00533 25-1210 L858R)": "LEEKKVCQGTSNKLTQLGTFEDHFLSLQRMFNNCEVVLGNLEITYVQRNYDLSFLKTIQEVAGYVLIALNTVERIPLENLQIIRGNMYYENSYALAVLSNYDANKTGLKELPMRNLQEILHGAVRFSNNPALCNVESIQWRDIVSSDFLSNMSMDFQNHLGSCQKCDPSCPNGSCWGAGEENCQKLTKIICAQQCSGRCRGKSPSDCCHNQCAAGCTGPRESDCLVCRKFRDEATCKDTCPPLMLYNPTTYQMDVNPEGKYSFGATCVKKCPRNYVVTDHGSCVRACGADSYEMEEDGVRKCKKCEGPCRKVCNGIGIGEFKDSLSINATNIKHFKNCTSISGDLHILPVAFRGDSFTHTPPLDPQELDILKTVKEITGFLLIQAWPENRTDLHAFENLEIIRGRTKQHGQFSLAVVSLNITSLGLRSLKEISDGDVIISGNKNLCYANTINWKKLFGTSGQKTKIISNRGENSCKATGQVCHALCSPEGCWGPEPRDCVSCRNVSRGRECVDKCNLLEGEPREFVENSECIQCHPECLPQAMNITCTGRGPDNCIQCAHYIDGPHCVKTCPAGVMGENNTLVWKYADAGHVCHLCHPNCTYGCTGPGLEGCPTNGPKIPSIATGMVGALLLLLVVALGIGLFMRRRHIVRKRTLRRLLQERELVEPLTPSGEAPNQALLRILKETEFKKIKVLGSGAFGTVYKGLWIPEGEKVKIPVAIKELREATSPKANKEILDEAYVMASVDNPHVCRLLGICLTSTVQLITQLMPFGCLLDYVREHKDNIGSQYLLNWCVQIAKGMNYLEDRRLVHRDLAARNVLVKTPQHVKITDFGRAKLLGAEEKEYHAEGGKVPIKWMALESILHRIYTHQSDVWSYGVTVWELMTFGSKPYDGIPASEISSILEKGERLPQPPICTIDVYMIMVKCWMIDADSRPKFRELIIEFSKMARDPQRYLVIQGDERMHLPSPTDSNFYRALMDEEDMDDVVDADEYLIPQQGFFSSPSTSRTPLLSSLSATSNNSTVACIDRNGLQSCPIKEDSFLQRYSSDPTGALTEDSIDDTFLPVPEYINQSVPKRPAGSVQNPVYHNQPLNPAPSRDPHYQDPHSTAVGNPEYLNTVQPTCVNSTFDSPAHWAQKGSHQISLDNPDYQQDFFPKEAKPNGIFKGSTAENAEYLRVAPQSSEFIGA", "experiment": "biochemical", "conditions": "read-out: %Ctrl @ 2000nM"}, "AAK1": {"target": "AAK1 (Homo sapiens, UniProt Q2M2I8)", "experiment": "biochemical", "conditions": "read-out: %Ctrl @ 2000nM"}, "CSNK1A1": {"target": "CSNK1A1 (Homo sapiens, UniProt P48729)", "experiment": "biochemical", "conditions": "read-out: %Ctrl @ 2000nM"}, "GSK3B": {"target": "GSK3B (Homo sapiens, UniProt P49841)", "experiment": "biochemical", "conditions": "read-out: %Ctrl @ 2000nM"}, "LIMK2": {"target": "LIMK2 (Homo sapiens, UniProt P53671)", "experiment": "biochemical", "conditions": "read-out: %Ctrl @ 2000nM"}, "EGFR(L858R,T790M)": {"target": "EGFR(L858R,T790M) (Homo sapiens, UniProt P00533, L858R/T790M)", "experiment": "biochemical", "conditions": "read-out: %Ctrl @ 2000nM"}, "[1]": {"target": "ABL1(T315I)-phosphorylated (Homo sapiens, UniProt P00519, T315I)", "experiment": "biochemical", "conditions": "read-out: %Ctrl @ 2000nM"}, "MAP4K5": {"target": "MAP4K5 (Homo sapiens, UniProt Q9Y4K4)", "experiment": "biochemical", "conditions": "read-out: %Ctrl @ 2000nM"}, "RIOK1": {"target": "RIOK1 (Homo sapiens, UniProt Q9BRS2)", "experiment": "biochemical", "conditions": "read-out: %Ctrl @ 2000nM"}, "AKT (S129)": {"tested_on": "AKT (S129)", "conditions": "HEK293 cells; 48 h"}, "KIT(V559D,T670I)": {"target": "KIT(V559D,T670I) (Homo sapiens, UniProt P10721, T670I/V559D)", "experiment": "biochemical", "conditions": "read-out: %Ctrl @ 2000nM"}, "primary hepatocytes": {"tested_on": "primary hepatocytes", "experiment": "cells", "conditions": "Hepatocyte, read-out: IC50 cell viability"}, "AURKB": {"target": "AURKB (Homo sapiens, UniProt Q96GD4)", "experiment": "biochemical", "conditions": "read-out: %Ctrl @ 2000nM"}, "NEK5": {"target": "NEK5 (Homo sapiens, UniProt Q6P3R8)", "experiment": "biochemical", "conditions": "read-out: %Ctrl @ 2000nM"}, "RIPK2": {"target": "RIPK2 (Homo sapiens, UniProt O43353)", "experiment": "biochemical", "conditions": "read-out: %Ctrl @ 2000nM"}, "EPHB2": {"target": "EPHB2 (Homo sapiens, UniProt P29323)", "sequence (P29323 19-1055)": "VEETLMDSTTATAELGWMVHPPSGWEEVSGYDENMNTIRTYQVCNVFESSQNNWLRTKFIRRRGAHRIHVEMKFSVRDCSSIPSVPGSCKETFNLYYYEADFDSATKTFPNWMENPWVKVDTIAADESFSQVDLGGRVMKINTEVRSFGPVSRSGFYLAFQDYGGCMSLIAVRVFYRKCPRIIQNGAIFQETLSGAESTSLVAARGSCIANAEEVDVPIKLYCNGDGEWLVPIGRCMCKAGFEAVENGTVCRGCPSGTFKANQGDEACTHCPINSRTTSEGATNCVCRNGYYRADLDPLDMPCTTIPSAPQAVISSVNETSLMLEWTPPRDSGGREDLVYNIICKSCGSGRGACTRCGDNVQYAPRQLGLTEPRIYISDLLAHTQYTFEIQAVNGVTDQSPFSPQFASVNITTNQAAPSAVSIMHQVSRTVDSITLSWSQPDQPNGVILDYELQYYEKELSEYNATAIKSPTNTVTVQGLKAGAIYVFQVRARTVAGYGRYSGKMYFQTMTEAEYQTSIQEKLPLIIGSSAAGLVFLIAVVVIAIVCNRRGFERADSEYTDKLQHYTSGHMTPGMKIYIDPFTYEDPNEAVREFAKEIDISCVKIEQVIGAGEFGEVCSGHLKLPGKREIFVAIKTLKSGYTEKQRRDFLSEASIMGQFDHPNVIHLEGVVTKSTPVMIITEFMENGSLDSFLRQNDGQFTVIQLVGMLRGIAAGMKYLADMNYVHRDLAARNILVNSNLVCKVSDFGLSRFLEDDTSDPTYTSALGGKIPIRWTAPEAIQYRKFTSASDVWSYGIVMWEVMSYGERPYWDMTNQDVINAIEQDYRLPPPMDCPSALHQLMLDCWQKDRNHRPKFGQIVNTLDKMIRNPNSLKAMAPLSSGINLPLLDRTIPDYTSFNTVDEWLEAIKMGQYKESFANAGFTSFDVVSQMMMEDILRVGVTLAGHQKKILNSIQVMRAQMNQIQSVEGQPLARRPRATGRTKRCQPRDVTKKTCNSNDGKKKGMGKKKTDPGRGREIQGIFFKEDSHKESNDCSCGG", "experiment": "biochemical", "conditions": "read-out: %Ctrl @ 2000nM"}, "WEE1": {"target": "WEE1 (Homo sapiens, UniProt P30291)", "experiment": "biochemical", "conditions": "read-out: %Ctrl @ 2000nM"}, "ULK3": {"target": "ULK3 (Homo sapiens, UniProt Q6PHR2)", "experiment": "biochemical", "conditions": "read-out: %Ctrl @ 2000nM"}, "GRK1": {"target": "GRK1 (Homo sapiens, UniProt Q15835)", "experiment": "biochemical", "conditions": "read-out: %Ctrl @ 2000nM"}, "MET(M1250T)": {"target": "MET(M1250T) (Homo sapiens, UniProt P08581, M1250T)", "experiment": "biochemical", "conditions": "read-out: %Ctrl @ 2000nM"}, "[2]": {"target": "RPS6KA5(Kin.Dom.2-C-terminal) (Homo sapiens, UniProt O75582)", "sequence (O75582 388-802 limits assumed)": "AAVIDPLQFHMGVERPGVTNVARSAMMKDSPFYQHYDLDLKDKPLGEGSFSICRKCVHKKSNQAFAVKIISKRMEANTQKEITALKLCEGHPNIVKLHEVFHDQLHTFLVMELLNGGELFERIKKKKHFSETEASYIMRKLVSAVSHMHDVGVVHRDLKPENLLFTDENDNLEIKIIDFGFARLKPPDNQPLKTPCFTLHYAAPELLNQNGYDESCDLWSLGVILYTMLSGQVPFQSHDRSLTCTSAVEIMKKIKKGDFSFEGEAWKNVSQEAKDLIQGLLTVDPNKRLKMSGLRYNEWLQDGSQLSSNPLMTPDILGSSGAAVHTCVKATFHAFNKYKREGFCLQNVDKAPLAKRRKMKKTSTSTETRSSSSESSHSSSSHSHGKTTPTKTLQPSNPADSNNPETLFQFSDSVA", "experiment": "biochemical"}, "MAK": {"target": "MAK (Homo sapiens, UniProt P20794)", "experiment": "biochemical", "conditions": "read-out: %Ctrl @ 2000nM"}, "FGFR2": {"target": "FGFR2 (Homo sapiens, UniProt P21802)", "sequence (P21802 22-821)": "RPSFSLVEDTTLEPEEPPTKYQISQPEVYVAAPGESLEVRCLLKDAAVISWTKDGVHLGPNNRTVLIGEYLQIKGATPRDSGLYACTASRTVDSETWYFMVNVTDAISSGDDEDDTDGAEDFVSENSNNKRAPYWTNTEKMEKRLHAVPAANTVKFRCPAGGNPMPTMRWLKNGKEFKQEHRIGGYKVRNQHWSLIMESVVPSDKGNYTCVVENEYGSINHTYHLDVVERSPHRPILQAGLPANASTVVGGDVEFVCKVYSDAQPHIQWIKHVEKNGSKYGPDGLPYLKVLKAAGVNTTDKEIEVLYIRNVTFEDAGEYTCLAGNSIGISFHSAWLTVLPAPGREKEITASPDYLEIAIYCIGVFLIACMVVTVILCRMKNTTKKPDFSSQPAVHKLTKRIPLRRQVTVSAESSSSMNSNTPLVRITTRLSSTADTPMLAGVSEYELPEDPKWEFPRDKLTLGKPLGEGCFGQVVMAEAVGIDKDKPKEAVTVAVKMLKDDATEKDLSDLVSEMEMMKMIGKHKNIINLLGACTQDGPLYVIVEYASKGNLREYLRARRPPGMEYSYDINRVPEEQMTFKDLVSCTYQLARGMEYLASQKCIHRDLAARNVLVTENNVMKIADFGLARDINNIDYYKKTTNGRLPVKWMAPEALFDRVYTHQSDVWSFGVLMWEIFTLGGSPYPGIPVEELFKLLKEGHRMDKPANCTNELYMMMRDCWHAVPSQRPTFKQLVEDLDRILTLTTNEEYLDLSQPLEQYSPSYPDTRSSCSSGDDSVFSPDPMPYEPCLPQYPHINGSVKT", "experiment": "biochemical", "conditions": "read-out: %Ctrl @ 2000nM"}, "TNK1": {"target": "TNK1 (Homo sapiens, UniProt Q13470)", "experiment": "biochemical", "conditions": "read-out: %Ctrl @ 2000nM"}, "CK2 in 786-O cells": {"tested_on": "CK2 in 786-O cells", "conditions": "read-out: IC50 CK2 activity in cell extracts"}, "BRSK1": {"target": "BRSK1 (Homo sapiens, UniProt Q8TDC3)", "experiment": "biochemical", "conditions": "read-out: %Ctrl @ 2000nM"}, "MAP4K4": {"target": "MAP4K4 (Homo sapiens, UniProt O95819)", "experiment": "biochemical", "conditions": "read-out: %Ctrl @ 2000nM"}, "MELK": {"target": "MELK (Homo sapiens, UniProt Q14680)", "experiment": "biochemical", "conditions": "read-out: %Ctrl @ 2000nM"}, "MARK4": {"target": "MARK4 (Homo sapiens, UniProt Q96L34)", "experiment": "biochemical", "conditions": "read-out: %Ctrl @ 2000nM"}},
  "data": [
    {"smiles": "CC(C)COC(=O)c1[nH]c2ccc(F)cc2c1-c1cn(CC2CCN(CCNS(=O)(=O)c3ccc(CC(C)C)cc3)CC2)nn1", "note": "[AB668, isobutyl 5-fluoro-3-(1-((1-(2-((4-isobutylphenyl)sulfonamido)ethyl)piperidin-4-yl)methyl)-1H-1,2,3-triazol-4-yl)-1H-indole-2-carboxylate]", "values": [
      {"measurement": "remaining activity at 2 µM", "setting": "CSNK1G1", "value": 90, "unit": "%"},
      {"measurement": "remaining activity at 2 µM", "setting": "CAMK1", "value": 77, "unit": "%"},
      {"measurement": "remaining activity at 2 µM", "setting": "EPHB3", "value": 80, "unit": "%"},
      {"measurement": "remaining activity at 2 µM", "setting": "MST1R", "value": 97, "unit": "%"},
      {"measurement": "remaining activity at 2 µM", "setting": "CLK1", "value": 67, "unit": "%"},
      {"measurement": "remaining activity at 2 µM", "setting": "MEK1", "value": 97, "unit": "%"},
      {"measurement": "remaining activity at 2 µM", "setting": "CAMK2D", "value": 89, "unit": "%"},
      {"measurement": "remaining activity at 2 µM", "setting": "TRKA", "value": 96, "unit": "%"},
      {"measurement": "remaining activity at 2 µM", "setting": "CAMK2A", "value": 96, "unit": "%"},
      {"measurement": "remaining activity at 2 µM", "setting": "DDR2", "value": 94, "unit": "%"},
      {"measurement": "remaining activity at 2 µM", "setting": "SLK", "value": 100, "unit": "%"},
      {"measurement": "remaining activity at 2 µM", "setting": "S6K1", "value": 89, "unit": "%"},
      {"measurement": "remaining activity at 2 µM", "setting": "FLT3(D835H)", "value": 89, "unit": "%"},
      {"measurement": "remaining activity at 2 µM", "setting": "EGFR(L858R)", "value": 96, "unit": "%"},
      {"measurement": "remaining activity at 2 µM", "setting": "AAK1", "value": 80, "unit": "%"},
      {"measurement": "remaining activity at 2 µM", "setting": "CSNK1A1", "value": 96, "unit": "%"},
      {"measurement": "remaining activity at 2 µM", "setting": "GSK3B", "value": 100, "unit": "%"},
      {"measurement": "remaining activity at 2 µM", "setting": "LIMK2", "value": 84, "unit": "%"},
      {"measurement": "remaining activity at 2 µM", "setting": "EGFR(L858R,T790M)", "value": 83, "unit": "%"},
      {"measurement": "remaining activity at 2 µM", "setting": "[1]", "value": 79, "unit": "%"},
      {"measurement": "remaining activity at 2 µM", "setting": "MAP4K5", "value": 96, "unit": "%"},
      {"measurement": "remaining activity at 2 µM", "setting": "RIOK1", "value": 80, "unit": "%"},
      {"measurement": "AKT phosphorylation", "setting": "AKT (S129)", "value": "weakly affected"},
      {"measurement": "remaining activity at 2 µM", "setting": "KIT(V559D,T670I)", "value": 93, "unit": "%"},
      {"measurement": "IC50", "setting": "primary hepatocytes", "value": "> 100000", "unit": "nM"},
      {"measurement": "remaining activity at 2 µM", "setting": "AURKB", "value": 99, "unit": "%"},
      {"measurement": "remaining activity at 2 µM", "setting": "NEK5", "value": 84, "unit": "%"},
      {"measurement": "remaining activity at 2 µM", "setting": "RIPK2", "value": 83, "unit": "%"},
      {"measurement": "remaining activity at 2 µM", "setting": "EPHB2", "value": 98, "unit": "%"},
      {"measurement": "remaining activity at 2 µM", "setting": "WEE1", "value": 96, "unit": "%"},
      {"measurement": "remaining activity at 2 µM", "setting": "ULK3", "value": 82, "unit": "%"},
      {"measurement": "remaining activity at 2 µM", "setting": "GRK1", "value": 80, "unit": "%"},
      {"measurement": "remaining activity at 2 µM", "setting": "MET(M1250T)", "value": 90, "unit": "%"},
      {"measurement": "remaining activity at 2 µM", "setting": "[2]; read-out: %Ctrl @ 2000nM", "value": 43, "unit": "%"},
      {"measurement": "inhibition at 2 µM", "setting": "[2]; read-out: percentage inhibition", "value": "> 50", "unit": "%"},
      {"measurement": "remaining activity at 2 µM", "setting": "MAK", "value": 96, "unit": "%"},
      {"measurement": "remaining activity at 2 µM", "setting": "FGFR2", "value": 93, "unit": "%"},
      {"measurement": "remaining activity at 2 µM", "setting": "TNK1", "value": 96, "unit": "%"},
      {"measurement": "IC50", "setting": "CK2 in 786-O cells", "value": "340 ± 70", "unit": "nM"},
      {"measurement": "remaining activity at 2 µM", "setting": "BRSK1", "value": 78, "unit": "%"},
      {"measurement": "remaining activity at 2 µM", "setting": "MAP4K4", "value": 96, "unit": "%"},
      {"measurement": "remaining activity at 2 µM", "setting": "MELK", "value": 100, "unit": "%"},
      {"measurement": "remaining activity at 2 µM", "setting": "MARK4", "value": 87, "unit": "%"}
    ]}
  ]
}
